Reference: US20100016307A1, “NOVEL COMPOUNDS” (priority 2006, published 2010)
pIC50: −log10 of the molar value.

Legend:
[1] = target: T1, human Met Kinase (His6-GST fusion, aa 956-1390) (Homo sapiens, UniProt P08581); test: In vitro screen: kinase assay of purified Met kinase; type: biochemical; conditions: purified Met 1 nM, 10 μM ATP, 1 μM peptide substrate, 1 hour at room temperature; read-out: pIC50 values at the c-Met receptor (in vitro screen results) (converted)
T1 construct: His6 (N); GST (Glutathione-S-Transferase) (N); made in house; host or cells: baculovirus expression system in Sf9 cells
Protocol: The peptide substrate, Biotin-aminohexyl-EEEEYFELVAKKKK-amide was purchased from SynPep Solid sample is dissolved at approximately 2.5 mM in water (concentration determined by amino acid analysis) and aliquots stored at −20° C.
Met Kinase: A fusion protein consisting of His6-tagged Glutathione-S-Transferase (GST) and amino acid residues 956-1390 of human Met Kinase (aa 956-1390 of Entrez Protein Accession # EAL24359.1 (met proto-oncogene (hepatocyte growth factor receptor) [Homo sapiens])) from “www.ncbi.nlm.nih.gov/entrez/”) is purified from baculovirus expression system in Sf9 cells using Ni chelate column, GSH column, followed by size exclusion chromatography. Purity greater than 90%, estimated by SDS-PAGE, is achieved. Samples in 25 mM HEPES pH 7.5, 100 mM NaCl, 0.1 mM EDTA are stored at −80° C. until use.
Assays are performed in 96 well (Costar, Catalog No. 3789) or 384 well plates (Costar, Catalog No. 3705). Assay conditions for the peptide phosphorylation reaction (in 10, 20, 25, or 40 μl volume) mix are 100 mM Hepes buffer, pH 7.4; 0.1 mgml^−1 BSA; 5 mM MgCl2; 1 mM DTT; 10 μM ATP; purified Met (1 nM final); and 1 μM peptide substrate. Compounds, titrated in DMSO, are evaluated at concentrations ranging from 50 μM to 0.2 nM. […] Reactions are incubated for 1 hour at room temperature and are stopped by addition of detection reagents containing, at final detection volume, 12.5 mM EDTA; 100 mM Hepes; 0.1 mg/ml BSA; 8 nM Streptavidin APC (Perkin Elmer catalog #CR130-150); 1 nM Europium-labelled anti-phosphotyrosine antibody (Perkin Elmer catalog #AD0067). Under the assay conditions defined above, the Km (apparent) for ATP is determined to be 40 μM.
The data for compound dose responses were plotted as % Inhibition, calculated with the data reduction formula 100*(1−[(U1−C2)/(C1−C2)]), versus concentration of compound, where U is the unknown value, C1 is the average control value obtained for DMSO, and C2 is the average control value obtained for 0.05M EDTA. Data were fitted to the curve described by: y=((Vmax*x)/(K+x)) where Vmax is the upper asymptote and K is the IC50. The results for each compound were recorded as pIC50 calculated as follows: pIC50=−Log 10(K).

[2] = target: T2, c-Met/cFms chimeric receptor in c-Met/cFms/NIH3T3 cells (Homo sapiens, UniProt P08581); test: Cell-based assay for c-Met autophosphorylation (ELISA); conditions: compounds 1 h at 37° C., M-CSF (600 ng/ml) stimulation 10 min
T2 construct: The transmembrane/cytoplasmic domain fragment of c-Met (nucleotides 933 to 1390); expressed in transfected cells; the other entry of the earlier key: CSF1R (P07333, Macrophage colony-stimulating factor 1 receptor)
Source text: To generate a chimeric cDNA clone of c-Met with cFms, the extracellular domain of colony stimulating factor 1 receptor (CSF1R encoded by cFms gene) was fused with the transmembrane and cytoplasmic domain of c-Met. Reverse-transcribed RNA from human placenta was used as template to clone c-Met. The transmembrane/cytoplasmic domain fragment of c-Met (nucleotides 933 to 1390) containing a NotI site at both 5′- and 3′-end was generated by polymerase chain reaction (PCR) using following two oligonucleotides;
The resulting c-Met cDNA was cloned into pCR2.1-TOPO vector (c-Met/pCR2.1-TOPO). The extracellular domain fragment of cFms (nucleotides 1 to 512) containing BamHI site at 5′-end and NotI site at 3′-end was generated from human placenta cDNA by PCR using two oligonucleotides;
The resulting cFms cDNA was cloned into pcDNA3.1 vector (Invitrogen) using the BamHI and NotI sites (cFms/pcDNA3.1). To generate complete chimeric construct, the c-Met fragment (transmembrane and cytoplasmic domain) was digested with NotI sites (in c-Met/pCR2.1-TOPO vector) and then subcloned into cFms/pcDNA3.1 vector by NotI site (c-Met/cFms/pcDNA3.1).
NIH3T3 cells were grown in DMEM supplemented with 10% fetal bovine serum. NIH3T3 cells were transfected with c-Met/cFms/pcDNA3.1 vector alone using the calcium phosphate method according to the manufacturer's instructions. Three days after transfection, cells were selected with G418 (0.4 mgml^−1) for 14 days and the expression of c-Met chimeric receptor in the G418-resistant colonies of NIH3T3 (c-Met/cFms/NIH3T3) cells was analyzed by immunoblot. Autophosphorylation of c-Met induced by the stimulation with M-SCF, the ligand for CSF1R, was analyzed by immunoprecipitation and immunoblot, and prominent stable transfectant was selected for c-Met autophosphorylation assay. […]
c-Met/cFms/NIH3T3 cells were plated at 1×10^5 cells/well in collagen-coated 96-well microtitre plates and grown 24 h under standard culture conditions, followed by serum starvation for 1 h. The cells were incubated with compounds for 1 h at 37° C. and followed by M-CSF (600 ngml^−1) stimulation for 10 min at 37° C. The media was removed and the cells were lysed with 120 ul/well of lysis buffer (20 mM Tris-HCl pH8.0, 137 mM NaCl, 2 mM EDTA, 10% glycerol, 1% Triton X-100, 1 mM Na3VO4 and Protease Inhibitor Cocktail (Complete mini EDTA-free, Roche)). Then 100 ul/well of lysate was transferred to the antibody-coated (50 ng/well goat anti-cFms antibody in PBS) ELISA plate and incubated overnight at 4° C. Plates were washed five times with PBST (PBS containing 0.05% Tween-20). Primary antibody (biotin-conjugated anti-phosphotyrosine monoclonal antibody, PIERCE) was diluted 1:10,000 in PBST containing 1% BSA, added (100 ul/well) and incubated for 2 h at room temperature. After washing the plates five times with washing buffer, 100 ul/well of HRP-conjugated streptavidin (PIERCE) in PBST containing 1% BSA was added and incubated for 30 min at room temperature. After washing five times with PBST, 100 ul/well of SuperSignal ELISA Femto Substrate (PIERCE) was added and incubated for almost 1 min at room temperature. Chemiluminescence was measured using Wallac 1420 multilabel counter.
The IC50 was determined by using XLfit software (IDBS) with four-parameters, sigmoidal dose-response equation.

T1 sequence (P08581 956-1390): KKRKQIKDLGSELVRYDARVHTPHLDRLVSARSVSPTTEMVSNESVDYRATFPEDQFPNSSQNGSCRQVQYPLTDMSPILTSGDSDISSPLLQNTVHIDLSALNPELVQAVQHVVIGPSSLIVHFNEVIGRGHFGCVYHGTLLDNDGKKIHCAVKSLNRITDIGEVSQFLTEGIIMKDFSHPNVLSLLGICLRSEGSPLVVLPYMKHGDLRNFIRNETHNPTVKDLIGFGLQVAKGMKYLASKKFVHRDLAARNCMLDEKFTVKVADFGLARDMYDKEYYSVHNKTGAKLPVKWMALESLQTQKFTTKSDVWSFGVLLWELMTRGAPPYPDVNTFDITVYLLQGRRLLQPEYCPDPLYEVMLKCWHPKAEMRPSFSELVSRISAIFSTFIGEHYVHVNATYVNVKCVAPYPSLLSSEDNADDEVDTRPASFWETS
T2 sequence (P08581 with tags, fused parts or gaps): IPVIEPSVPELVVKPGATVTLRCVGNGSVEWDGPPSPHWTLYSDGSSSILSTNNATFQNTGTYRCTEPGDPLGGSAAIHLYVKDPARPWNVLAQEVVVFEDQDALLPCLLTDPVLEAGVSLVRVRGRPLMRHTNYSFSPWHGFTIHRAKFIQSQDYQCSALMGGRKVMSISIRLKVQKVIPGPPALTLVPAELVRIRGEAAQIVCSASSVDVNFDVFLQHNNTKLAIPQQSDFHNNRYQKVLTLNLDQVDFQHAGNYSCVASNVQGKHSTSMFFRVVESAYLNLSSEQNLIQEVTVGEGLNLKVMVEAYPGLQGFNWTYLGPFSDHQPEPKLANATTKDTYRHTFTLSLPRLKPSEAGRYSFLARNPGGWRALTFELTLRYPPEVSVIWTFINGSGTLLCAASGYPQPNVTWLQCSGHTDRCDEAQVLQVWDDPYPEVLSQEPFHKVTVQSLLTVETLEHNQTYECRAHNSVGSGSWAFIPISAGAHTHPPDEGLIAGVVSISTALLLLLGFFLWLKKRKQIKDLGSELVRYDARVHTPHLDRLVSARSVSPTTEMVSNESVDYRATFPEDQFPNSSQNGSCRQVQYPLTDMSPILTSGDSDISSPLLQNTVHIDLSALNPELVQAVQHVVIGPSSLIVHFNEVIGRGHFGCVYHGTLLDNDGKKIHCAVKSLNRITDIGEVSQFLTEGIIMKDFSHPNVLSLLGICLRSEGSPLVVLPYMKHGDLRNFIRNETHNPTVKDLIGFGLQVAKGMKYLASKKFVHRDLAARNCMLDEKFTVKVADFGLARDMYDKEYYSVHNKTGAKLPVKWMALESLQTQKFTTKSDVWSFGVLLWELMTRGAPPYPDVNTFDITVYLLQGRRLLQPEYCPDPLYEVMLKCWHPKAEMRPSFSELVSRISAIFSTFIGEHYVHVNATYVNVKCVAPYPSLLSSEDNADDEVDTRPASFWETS

| IC50 [1] [nM] | pIC50 [2] | SMILES |
| --- | --- | --- |
| 100 to 1000 | 4.50 to 5.50 | O=C(Nc1ccccc1)C1(C(=O)Nc2ccc(Nc3ccnc4[nH]ccc34)cc2)CC1 [Example 16, N^1-Phenyl-N^1-[4-(1H-pyrrolo[2,3-b]pyridin-4-ylamino)phenyl]-1,1-cyclopropanedicarboxamide] |
| < 10 | 5.50 to 6.00 | CN(C)Cc1cccc(NC(=O)c2cc3c(Oc4ccc(NC(=O)C5(C(=O)Nc6ccc(F)cc6)CC5)cc4)ccnc3[nH]2)c1 [Example 14, N^1-[4-({2-[({3-[(Dimethylamino)methyl]phenyl}amino)carbonyl]-1H-pyrrolo[2,3-b]pyridin-4-yl}oxy)phenyl]-N^1-(4-fluorophenyl)-1,1-cyclopropane dicarboxamide] |
